From ChEMBL document CHEMBL4622979, “Non-rigid Diarylmethyl Analogs of Baloxavir as Cap-Dependent Endonuclease Inhibitors of Influenza Viruses” (J Med Chem, 2020)

Columns and labels:
[1] = Elimination rate constant in CD1 mouse plasma assessed as baloxavir acid level at 15 mg/kg, po administered as single dose measured up to 24 hrs by LC-MS/MS analysis; assay type: ADME, organism-based; conditions: in vivo
[2] = Elimination rate constant in CD1 mouse blood assessed as baloxavir acid level at 15 mg/kg, po administered as single dose measured up to 24 hrs by LC-MS/MS analysis; assay type: ADME, organism-based; conditions: in vivo
[3] = Tmax in CD1 mouse blood assessed as baloxavir acid level at 15 mg/kg, po administered as single dose measured up to 24 hrs by LC-MS/MS analysis; assay type: ADME, organism-based; conditions: in vivo
[4] = AUCinfinity in CD1 mouse blood assessed as baloxavir acid level at 15 mg/kg, po administered as single dose measured up to 24 hrs by LC-MS/MS analysis; assay type: ADME, organism-based; parameters: dose 15 mg/kg, time infinity, route oral; conditions: in vivo
[5] = Ratio of AUClast in CD1 mouse lung to plasma assessed as baloxavir acid level at 15 mg/kg, po administered as single dose measured up to 24 hrs by LC-MS/MS analysis; assay type: ADME, organism-based; conditions: other tissue
[6] = Cmax in CD1 mouse small intestine assessed as baloxavir acid level at 15 mg/kg, po administered as single dose measured up to 24 hrs by LC-MS/MS analysis; assay type: ADME, organism-based; parameters: dose 15 mg/kg, route oral; conditions: in vivo
[7] = AUClast in CD1 mouse brain assessed as baloxavir acid level at 15 mg/kg, po administered as single dose measured up to 24 hrs by LC-MS/MS analysis; assay type: ADME, organism-based; conditions: in vivo
[8] = Acute toxicity in CD1 mouse assessed as effect on food consumption at 2000 mg/kg, po measured for 2 weeks; assay type: organism-based; conditions: in vivo, 336 h
[9] = Acute toxicity in CD1 mouse assessed as effect on kidney at 2000 mg/kg, po measured after 2 weeks by macroscopic analysis; assay type: organism-based; conditions: in vivo, 336 h
[10] = Elimination rate constant in CD1 mouse plasma assessed as (12aR)-12-(Diphenylmethyl)-7-hydroxy-3,4,12,12a-tetrahydro-1H-[1,4]oxazino[3,4-c]pyrido[2,1-f ][1,2,4]triazine-6,8-dione level at 15 mg/kg, po administered as single dose measured up to 24 hrs by LC-MS/MS analysis; assay type: ADME, organism-based; conditions: in vivo
[11] = AUClast in CD1 mouse liver assessed as (12aR)-12-(Diphenylmethyl)-7-hydroxy-3,4,12,12a-tetrahydro-1H-[1,4]oxazino[3,4-c]pyrido[2,1-f ][1,2,4]triazine-6,8-dione level at 15 mg/kg, po administered as single dose measured up to 24 hrs by LC-MS/MS analysis; assay type: ADME, organism-based; conditions: in vivo
[12] = Ratio of AUClast in CD1 mouse liver to plasma assessed as (12aR)-12-(Diphenylmethyl)-7-hydroxy-3,4,12,12a-tetrahydro-1H-[1,4]oxazino[3,4-c]pyrido[2,1-f ][1,2,4]triazine-6,8-dione level at 15 mg/kg, po administered as single dose measured up to 24 hrs by LC-MS/MS analysis; assay type: ADME, organism-based; conditions: other tissue
[13] = Tmax in CD1 mouse heart assessed as (12aR)-12-(Diphenylmethyl)-7-hydroxy-3,4,12,12a-tetrahydro-1H-[1,4]oxazino[3,4-c]pyrido[2,1-f ][1,2,4]triazine-6,8-dione level at 15 mg/kg, po administered as single dose measured up to 24 hrs by LC-MS/MS analysis; assay type: ADME, organism-based; conditions: in vivo
[14] = AUClast in CD1 mouse heart assessed as (12aR)-12-(Diphenylmethyl)-7-hydroxy-3,4,12,12a-tetrahydro-1H-[1,4]oxazino[3,4-c]pyrido[2,1-f ][1,2,4]triazine-6,8-dione level at 15 mg/kg, po administered as single dose measured up to 24 hrs by LC-MS/MS analysis; assay type: ADME, organism-based; conditions: in vivo
[15] = Half life in CD1 mouse lung assessed as (12aR)-12-(Diphenylmethyl)-7-hydroxy-3,4,12,12a-tetrahydro-1H-[1,4]oxazino[3,4-c]pyrido[2,1-f ][1,2,4]triazine-6,8-dione level at 15 mg/kg, po administered as single dose measured up to 24 hrs by LC-MS/MS analysis; assay type: ADME, organism-based; conditions: in vivo
[16] = MRTlast in CD1 mouse trachea assessed as (12aR)-12-(Diphenylmethyl)-7-hydroxy-3,4,12,12a-tetrahydro-1H-[1,4]oxazino[3,4-c]pyrido[2,1-f ][1,2,4]triazine-6,8-dione level at 15 mg/kg, po administered as single dose measured up to 24 hrs by LC-MS/MS analysis; assay type: ADME, organism-based; conditions: in vivo
[17] = AUCinfinity in CD1 mouse small intestine assessed as (12aR)-12-(Diphenylmethyl)-7-hydroxy-3,4,12,12a-tetrahydro-1H-[1,4]oxazino[3,4-c]pyrido[2,1-f ][1,2,4]triazine-6,8-dione level at 15 mg/kg, po administered as single dose measured up to 24 hrs by LC-MS/MS analysis; assay type: ADME, organism-based; parameters: dose 15 mg/kg, route oral, time infinity; conditions: in vivo
[18] = AUCinfinity in CD1 mouse brain assessed as (12aR)-12-(Diphenylmethyl)-7-hydroxy-3,4,12,12a-tetrahydro-1H-[1,4]oxazino[3,4-c]pyrido[2,1-f ][1,2,4]triazine-6,8-dione level at 15 mg/kg, po administered as single dose measured up to 24 hrs by LC-MS/MS analysis; assay type: ADME, organism-based; parameters: dose 15 mg/kg, time infinity, route oral; conditions: in vivo
[19] = Stability in human plasma assessed as parent compound remaining at 1 uM measured after 4 hrs by LC-MS/MS analysis; assay type: ADME, cell-free; conditions: read-out: Stability
[20] = Stability in rat plasma assessed as parent compound remaining at 1 uM measured after 4 hrs by LC-MS/MS analysis; assay type: ADME, cell-free; conditions: read-out: Stability
[21] = Ratio of free drug level in CD1 mouse blood assessed as (12aR)-12-(Diphenylmethyl)-7-hydroxy-3,4,12,12a-tetrahydro-1H-[1,4]oxazino[3,4-c]pyrido[2,1-f ][1,2,4]triazine-6,8-dione level at 50 mg/kg, po to EC50 for antiviral activity against Influenza A/California/04/2009 (H1N1)pdm09 infected in MDCK cells; assay type: ADME, organism-based; conditions: in vivo

Question: Which Kel [1] does the source give for `COC(=O)OCOc1c2n(ccc1=O)N([C@@H]1c3ccccc3SCc3c1ccc(F)c3F)[C@@H]1COCCN1C2=O` [BALOXAVIR MARBOXIL] here?
Answer: 0.18 h⁻¹

Question: And the Kel [2]?
Answer: 0.21 h⁻¹

Question: What about the Tmax [3] of the same compound?
Answer: 2 h

Question: And the AUC [4]?
Answer: 1390 ng·h/g

Question: And the “Ratio AUC” value [5]?
Answer: 21.1

Question: What about the Cmax [6] of the same compound?
Answer: 53413 ng/g

Question: And the AUClast [7]?
Answer: 317 ng·h/g

Question: With `COC(=O)OCOc1c2n(ccc1=O)N(C(c1ccccc1)c1ccccc1)[C@@H]1COCCN1C2=O` as the compound, how does the Activity [8] read?
Answer: Non-Toxic

Question: And the Activity [9]?
Answer: Non-Toxic

Question: What about the Kel [10] of the same compound?
Answer: 0.44 h⁻¹

Question: What about the AUClast [11] of the same compound?
Answer: 34818 ng·h/g

Question: What about the “Ratio AUC” value [12] of the same compound?
Answer: 10.6

Question: What about the Tmax [13] of the same compound?
Answer: 0.5 h

Question: What about the AUClast [14] of the same compound?
Answer: 11111 ng·h/g

Question: What about the t1/2 [15] of the same compound?
Answer: 1.57 h

Question: And the MRTlast [16]?
Answer: 3.55 h

Question: What about the AUC [17] of the same compound?
Answer: 44252 ng·h/g

Question: And the AUC [18]?
Answer: 1238 ng·h/g

Question: What about the remaining at 4 h, 1 µM [19] of the same compound?
Answer: 8.1%

Question: And the remaining at 4 h, 1 µM [20]?
Answer: 0%

Question: And the Ratio [21]?
Answer: 44
